The target of this experiment is T1, E. coli CsgA (Escherichia coli, UniProt P28307).
T1 construct: made in house; host or cells: E. coli NEB 3016 slyD::kan, pET11d
The experiment can be described thus: In vitro ThioflavinT assay of CsgA aggregation (CsgA ThT Assay). In kind it is biochemical. To be noted: for remaining activity at 25 µM: compound 25 μM; for remaining activity at 100 µM: compound 100 μM. A digest of the protocol:
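Purified C-terminal His-tagged CsgA, monomerised by desalting and 30-kDa filtration, at 2-20 μM with 20-40 μM ThT in 50 mM potassium phosphate pH 7.3, 1% DMSO, compounds 3.125-200 uM; room temperature, fluorescence (ex 438/em 495 nm) read every 15 min. Background-subtracted signal expressed as percent inhibition versus vehicle at 6-6.5 or 8-9 h, or as percent control AUC.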

The mark [1] stands for this setting: read-out: CsgA ThT Assay (2 μM CsgA) % Control Bmax 25 μM, activity range, class symbol, CsgA 2 μM, white plates.
Where [2] appears, read: read-out: CsgA ThT Assay (2 μM CsgA) % Control Bmax 25 μM, mean Bmax as percentage of DMSO control, CsgA 2 μM, white plates.
The mark [3] stands for this setting: read-out: CsgA ThT Assay (2 μM CsgA) % Control Bmax 100 μM, activity range, class symbol, CsgA 2 μM, white plates.
Setting [4] is: read-out: CsgA ThT Assay (2 μM CsgA) % Control Bmax 100 μM, mean Bmax as percentage of DMSO control, CsgA 2 μM, white plates.
Setting [5] is: read-out: CsgA ThT Assay (10 μM CsgA) % Control AUC at 1005 minutes, 25 μM (activity range), CsgA 10 μM, black plates, 1005 minutes, class symbol.
The mark [6] stands for this setting: read-out: CsgA ThT Assay (10 μM CsgA) % Control AUC at 1005 minutes, 25 μM, mean AUC as % of DMSO control, CsgA 10 μM, black plates, 1005 minutes.
Where [7] appears, read: read-out: CsgA ThT Assay (10 μM CsgA) % Control AUC at 1005 minutes, 100 μM (activity range), CsgA 10 μM, black plates, 1005 minutes, class symbol.
Where [8] appears, read: read-out: CsgA ThT Assay (10 μM CsgA) % Control AUC at 1005 minutes, 100 μM, mean AUC as % of DMSO control, CsgA 10 μM, black plates, 1005 minutes.

Like-named read-outs stand apart in the source and are kept apart here.

T1 sequence (P28307 23-151): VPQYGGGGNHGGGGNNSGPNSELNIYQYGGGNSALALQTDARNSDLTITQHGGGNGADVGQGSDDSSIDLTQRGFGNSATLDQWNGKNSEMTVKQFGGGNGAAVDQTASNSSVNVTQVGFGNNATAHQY

Turning to `CC(C)CN1CC(C(=O)O)n2c1c(-c1cccc(C(F)(F)F)c1)c(Cc1cccc3ccccc13)c(Cl)c2=O` (stereo not drawn) [Compound 164, 6-chloro-1-isobutyl-7-(naphthalen-1-ylmethyl)-5-oxo-8-(3-(trifluoromethyl)phenyl)-1,2,3,5-tetrahydroimidazo[1,2-a]pyridine-3-carboxylic acid], the remaining activity at 25 µM under setting [1] was 31 to 60% and the remaining activity at 25 µM under setting [2] came out at 52%. For the same compound, the remaining activity at 100 µM by setting is: under setting [3], 31 to 60%; under setting [4], 42%.
`COc1ccc(CN2CC(C(=O)O)n3c2c(-c2cccc(C(F)(F)F)c2)c(Cc2cccc4ccccc24)c(Cl)c3=O)cc1` (stereo not drawn) [Compound 192, 6-chloro-1-(4-methoxybenzyl)-7-(naphthalen-1-ylmethyl)-5-oxo-8-(3-(trifluoromethyl)phenyl)-1,2,3,5-tetrahydroimidazo[1,2-a]pyridine-3-carboxylic acid]: the remaining activity at 25 µM runs as follows: under setting [1], greater than 60%; under setting [2], 87%. Besides, the remaining activity at 100 µM under setting [3] was greater than 60% and the remaining activity at 100 µM under setting [4] came out at 95%.
As to `O=C(O)c1c(CCc2ccccc2)sc2c(-c3cccc(C(F)(F)F)c3)c(Cc3cccc4ccccc34)cc(=O)n12` [Compound 062, 7-(naphthalen-1-ylmethyl)-5-oxo-2-phenethyl-8-(3-(trifluoromethyl)phenyl)-5H-thiazolo[3,2-a]pyridine-3-carboxylic acid], the remaining activity at 25 µM is greater than 60% under setting [5] and 77% under setting [6]. The remaining activity at 100 µM by setting is: under setting [7], greater than 60%; under setting [8], 97%.
In the case of `Nc1c(Cc2ccc(N)c3ccccc23)c(-c2cccc(C(F)(F)F)c2)c2n(c1=O)C(C(=O)O)CNS2(=O)=O` (stereo not drawn) [Compound 041], the remaining activity at 25 µM reads like this: under setting [5], greater than 60%; under setting [6], 75%. Besides, the remaining activity at 100 µM under setting [7] lay in the range of 11 to 31% and the remaining activity at 100 µM under setting [8] is 27%.
For the compound `CN1CC(C(=O)O)n2c(c(-c3cccc(C(F)(F)F)c3)c(Cc3cccc4ccccc34)c(NCc3ccccc3)c2=O)S1(=O)=O` (stereo not drawn) [Compound 071], the remaining activity at 25 µM under setting [5] was 11 to 31% and the remaining activity at 25 µM under setting [6] was 25%. The remaining activity at 100 µM by setting is: under setting [7], greater than 60%; under setting [8], 78%.
As to `CN(C)C(=O)C1CN(C)S(=O)(=O)c2c(-c3cccc(C(F)(F)F)c3)c(Cc3cccc4ccccc34)cc(=O)n21` (stereo not drawn) [Compound 032, N,N-2-trimethyl-8-(naphthalen-1-ylmethyl)-6-oxo-9-(3-(trifluoromethyl)phenyl)-3,4-dihydro-2H,6H-pyrido[1,2-e][1,2,5]thiadiazine-4-carboxamide 1,1-dioxide], the remaining activity at 25 µM is, setting by setting: under setting [5], greater than 60%; under setting [6], 92%.
As for `O=C(O)C1CN(Cc2ccc(-c3ccccc3)cc2)c2c(-c3cccc(C(F)(F)F)c3)c(Cc3cccc4ccccc34)c(Cl)c(=O)n21` (stereo not drawn) [Compound 202, 1-([1,1′-biphenyl]-4-ylmethyl)-6-chloro-7-(naphthalen-1-ylmethyl)-5-oxo-8-(3-(trifluoromethyl)phenyl)-1,2,3,5-tetrahydroimidazo[1,2-a]pyridine-3-carboxylic acid], the remaining activity at 25 µM under setting [1] was in the range of 31 to 60% and the remaining activity at 25 µM under setting [2] worked out at 51%.
In the case of `O=C(O)C1CN(Cc2ccccc2)c2c(-c3cccc(C(F)(F)F)c3)c(C(F)(F)c3cccc4ccccc34)c(Br)c(=O)n21` (stereo not drawn) [Compound 155, 1-benzyl-6-bromo-7-(difluoro(naphthalen-1-yl)methyl)-5-oxo-8-(3-(trifluoromethyl)phenyl)-1,2,3,5-tetrahydroimidazo[1,2-a]pyridine-3-carboxylic acid], the remaining activity at 25 µM is, setting by setting: under setting [1], 31 to 60%; under setting [2], 57%. For the same compound, the remaining activity at 100 µM by setting is: under setting [3], greater than 60%; under setting [4], 112%.
`O=C(O)C1CN(C[C@H](O)[C@@H](O)[C@H](O)[C@H](O)CO)S(=O)(=O)c2c(-c3cccc(C(F)(F)F)c3)c(Cc3cccc4ccccc34)cc(=O)n21` (mixture of isomers) [Compound 066, 8-(naphthalen-1-ylmethyl)-6-oxo-2-((2S,3R,4R,5R)-2,3,4,5,6-pentahydroxyhexyl)-9-(3-(trifluoromethyl)phenyl)-3,4-dihydro-2H,6H-pyrido[1,2-e][1,2,5]thiadiazine-4-carboxylic acid 1,1-dioxide]: the remaining activity at 25 µM under setting [5] is greater than 60% and the remaining activity at 25 µM under setting [6] stood at 88%. Moreover, the remaining activity at 100 µM is 11 to 31% under setting [7] and 29% under setting [8].
As to `O=C(O)C1CN(Cc2ccc(CO)cc2)c2c(-c3cccc(C(F)(F)F)c3)c(Cc3cccc4ccccc34)c(Cl)c(=O)n21` (stereo not drawn) [Compound 170, 6-chloro-1-(4-(hydroxymethyl)benzyl)-7-(naphthalen-1-ylmethyl)-5-oxo-8-(3-(trifluoromethyl)phenyl)-1,2,3,5-tetrahydroimidazo[1,2-a]pyridine-3-carboxylic acid], the remaining activity at 25 µM was greater than 60% under setting [1] and 62% under setting [2]. The remaining activity at 100 µM is, setting by setting: under setting [3], 31 to 60%; under setting [4], 38%.
Consider `O=C(O)C1CN(Cc2ccccc2CO)c2c(-c3cccc(C(F)(F)F)c3)c(Cc3cccc4ccccc34)c(Cl)c(=O)n21` (stereo not drawn) [Compound 181, 6-chloro-1-(2-(hydroxymethyl)benzyl)-7-(naphthalen-1-ylmethyl)-5-oxo-8-(3-(trifluoromethyl)phenyl)-1,2,3,5-tetrahydroimidazo[1,2-a]pyridine-3-carboxylic acid], for which the remaining activity at 25 µM was 31 to 60% under setting [1] and 57% under setting [2]. Further, the remaining activity at 100 µM reads like this: under setting [3], 31 to 60%; under setting [4], 40%.
As for `O=C(O)C1CN(Cc2ccccc2)c2c(-c3cccc(C(F)(F)F)c3)c(Cc3cccc4ccccc34)c(Cl)c(=O)n21` (stereo not drawn) [Compound 004, 1-benzyl-6-chloro-7-(naphthalen-1-ylmethyl)-5-oxo-8-(3-(trifluoromethyl)phenyl)-1,2,3,5-tetrahydroimidazo[1,2-a]pyridine-3-carboxylic acid], the remaining activity at 25 µM reads like this: under setting [1], 31 to 60%; under setting [2], 57%. In addition, the remaining activity at 100 µM reads like this: under setting [3], 11 to 31%; under setting [4], 26%.
With `O=C(O)C1CSc2c(-c3cccc(C(F)(F)F)c3)c(C(F)(F)c3cccc4ccccc34)cc(=O)n21` (stereo not drawn) [Compound 073, 7-(difluoro(naphthalen-1-yl)methyl)-5-oxo-8-(3-(trifluoromethyl)phenyl)-2,3-dihydro-5H-thiazolo[3,2-a]pyridine-3-carboxylic acid], the remaining activity at 25 µM was 11 to 31% under setting [5] and 27% under setting [6]. Moreover, the remaining activity at 100 µM under setting [7] is greater than 60% and the remaining activity at 100 µM under setting [8] is 97%.
Regarding `O=C(O)C1CN(CC2CCCC2)c2c(-c3cccc(C(F)(F)F)c3)c(Cc3cccc4ccccc34)c(Cl)c(=O)n21` (stereo not drawn) [Compound 167, 6-chloro-1-(cyclopentylmethyl)-7-(naphthalen-1-ylmethyl)-5-oxo-8-(3-(trifluoromethyl)phenyl)-1,2,3,5-tetrahydroimidazo[1,2-a]pyridine-3-carboxylic acid], the remaining activity at 25 µM under setting [1] was greater than 60% and the remaining activity at 25 µM under setting [2] is 65%. Further, the remaining activity at 100 µM under setting [3] was 31 to 60% and the remaining activity at 100 µM under setting [4] came out at 49%.
Take `O=C(O)C1CN(Cc2ccccc2)c2c(-c3cccc(Br)c3)c(Cc3cccc4ccccc34)c(Cl)c(=O)n21` (stereo not drawn) [Compound 198, 1-benzyl-8-(3-bromophenyl)-6-chloro-7-(naphthalen-1-ylmethyl)-5-oxo-1,2,3,5-tetrahydroimidazo[1,2-a]pyridine-3-carboxylic acid]: the remaining activity at 25 µM reads like this: under setting [1], greater than 60%; under setting [2], 61%. Also, the remaining activity at 100 µM was 31 to 60% under setting [3] and 39% under setting [4].
In the same order, the values of `CN1CC(C(=O)O)n2c(c(-c3cccc(C(F)(F)F)c3)c(Cc3cccc4ccccc34)c(C(=O)NC(C)(C)C)c2=O)S1(=O)=O` (stereo not drawn) [Compound 158, 7-(tert-butylcarbamoyl)-2-methyl-8-(naphthalen-1-ylmethyl)-6-oxo-9-(3-(trifluoromethyl)phenyl)-3,4-dihydro-2H,6H-pyrido[1,2-e][1,2,5]thiadiazine-4-carboxylic acid 1,1-dioxide] are greater than 60%, 69%, greater than 60% and 72%.

These data come from US20230131899A1, “INHIBITORS OF MICROBIALLY INDUCED AMYLOID” (Axial Therapeutics, Inc., priority 2020, published 2023).
